Structures are written as SMILES.

Data on ten molecules can be found in ChEMBL document CHEMBL1134184, “Synthesis of sialyl Lewis(x) mimics. Modifications of the 6-position of galactose” (Bioorg Med Chem Lett, 2001).

The assay addresses T1, E-selectin (Homo sapiens, UniProt P16581).
T1 sequence (P16581 whole entry): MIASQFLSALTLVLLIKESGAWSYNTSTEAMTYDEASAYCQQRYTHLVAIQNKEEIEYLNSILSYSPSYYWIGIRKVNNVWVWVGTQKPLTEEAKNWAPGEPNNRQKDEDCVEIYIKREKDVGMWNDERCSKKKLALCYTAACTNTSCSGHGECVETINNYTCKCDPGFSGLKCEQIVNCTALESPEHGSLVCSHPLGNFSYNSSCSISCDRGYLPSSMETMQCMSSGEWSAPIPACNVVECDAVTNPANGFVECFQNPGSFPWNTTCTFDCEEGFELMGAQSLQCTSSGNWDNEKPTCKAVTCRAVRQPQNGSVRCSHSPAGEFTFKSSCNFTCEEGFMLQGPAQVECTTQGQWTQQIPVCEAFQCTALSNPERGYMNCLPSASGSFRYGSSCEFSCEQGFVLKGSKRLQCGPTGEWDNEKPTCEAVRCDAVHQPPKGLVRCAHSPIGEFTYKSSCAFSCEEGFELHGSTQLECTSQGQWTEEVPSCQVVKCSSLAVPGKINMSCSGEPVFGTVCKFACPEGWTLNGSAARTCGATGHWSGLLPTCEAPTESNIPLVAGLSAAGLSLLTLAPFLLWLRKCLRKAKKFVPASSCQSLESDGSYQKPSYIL
The assay can be described thus: Inhibitory concentration of compound to block the binding of sLE Xto E-selectin.

By IC50 is commonly meant the point on the concentration scale where inhibition reaches its midpoint. In the case of `CC1OC(OC2CCCCC2OC2OC(C(N)=O)C(O)C(O[C@@H](CC3CCCCC3)C(=O)O)C2O)C(O)C(O)C1O` (stereo not given in full), the IC50 is > 10 mM.

Consider `CC1OC(OC2CCCCC2OC2OC(CN)C(O)C(O[C@@H](Cc3ccccc3)C(=O)O)C2O)C(O)C(O)C1O` (stereo not given in full), for which the half-inhibitory concentration (IC50) is > 10 mM.

Take `COC(=O)CCCCCCCCO[C@@H]1OC(CO)[C@@H](O[C@@H]2O[C@@H](CO)[C@H](O)[C@H](O[C@]3(C(=O)O)C[C@@H](O)[C@@H](NC(C)=O)[C@@H](C(O)C(O)CO)O3)[C@@H]2O)[C@@H](O[C@@H]2O[C@H](C)[C@@H](O)[C@H](O)C2O)[C@@H]1NC(C)=O` (stereo not given in full): the half-maximal inhibitory concentration (IC50) came to 1 mM.

As for `C[C@@H]1O[C@@H](O[C@@H]2CCCC[C@H]2O[C@@H]2O[C@@H](CO)[C@H](O)[C@H](O[C@@H](Cc3ccccc3)C(=O)O)[C@@H]2O)[C@@H](O)[C@@H](O)[C@@H]1O`, the IC50 was 0.35 mM.

Regarding `C[C@@H]1O[C@@H](O[C@@H]2CCCC[C@H]2O[C@@H]2O[C@@H](C(=O)O)[C@H](O)[C@H](O[C@@H](CC3CCCCC3)C(=O)O)[C@@H]2O)[C@@H](O)[C@@H](O)[C@@H]1O`, the half-maximal inhibitory concentration (IC50) is > 10 mM.

As to `C[C@@H]1O[C@@H](O[C@@H]2CCCC[C@H]2O[C@@H]2O[C@@H](C(=O)O)[C@H](O)[C@H](O[C@@H](Cc3ccccc3)C(=O)O)[C@@H]2O)[C@@H](O)[C@@H](O)[C@@H]1O`, the half-inhibitory concentration (IC50) is > 10 mM.

Consider `C[C@@H]1O[C@@H](O[C@@H]2CCCC[C@H]2O[C@@H]2O[C@@H](COS(=O)(=O)O)[C@H](O)[C@H](O[C@@H](Cc3ccccc3)C(=O)O)[C@@H]2O)[C@@H](O)[C@@H](O)[C@@H]1O`, for which the 50% inhibitory concentration (IC50) was > 10 mM.

`C[C@@H]1O[C@@H](O[C@@H]2CCCC[C@H]2O[C@@H]2O[C@@H](CO)[C@H](O)[C@H](O[C@@H](CC3CCCCC3)C(=O)O)[C@@H]2O)[C@@H](O)[C@@H](O)[C@@H]1O` registered an IC50 of 0.08 mM.

Consider `CC(=O)NCC1OC(OC2CCCCC2OC2OC(C)C(O)C(O)C2O)C(O)C(OC(Cc2ccccc2)C(=O)O)C1O` (stereo not given), for which the IC50 is > 10 mM.

For `CC1OC(OC2CCCCC2OC2OC(CNC(=O)c3ccccc3)C(O)C(OC(Cc3ccccc3)C(=O)O)C2O)C(O)C(O)C1O` (stereo not given), the half-maximal inhibitory concentration (IC50) is > 10 mM.
